Laboratory results published in PMC3003687, “α-Galactosylceramide Analogs with Weak Agonist Activity for Human iNKT Cells Define New Candidate Anti-Inflammatory Agents” (PLoS ONE, 2010).

Columns and labels:
human iNKT cell clones = experiment: Cytokine ELISA of human iNKT cell clones stimulated with glycolipid-pulsed CD1d-transfected HeLa cells; format: cell-based; conditions: for dose inducing the lowest activation state (IL-13 and GM-CSF secretion): CD1d-transfected Hela cells and dendritic cells as APCs; for iNKT cell clone cytokine response / agonist activity: dose range, IFNγ, IL-4, IL-13, clones HDD3, HDD11, HDE3, HDA7
Description: Capture ELISA assays were used for measurement of cytokine responses of human iNKT cells to αGalCer analogs. One day prior to the experiment, CD1d transfected HeLa cells were plated at 25×10^3 cells/well in 100 µL of medium in flat-bottom 96 well plates. Glycolipids were then added in 100 µL of medium to give final concentrations ranging from 0.05 to 10^4 nM. The APCs were incubated for approximately 18 hours with the glycolipids and then irradiated (10,000 Rad) and washed twice with PBS prior to addition of 25×10^3 iNKT cells well in 300 µL. Supernatants were harvested after 24 hours of co-culture and stored frozen at -20°C. After thawing, aliquots of the supernatants were assayed for specific cytokines by ELISA using capture and biotin-labeled detection antibody pairs specific for GM-CSF, IL-2, IL-4, IL-12p70 and IL-13 (all obtained from BD Biosciences), IFNγ (Thermo-Scientific) or IL-18 (MBL). Specific signals were developed using HRP- conjugated streptavidin (BD Biosciences) and Turbo TMB substrate (Thermo-Scientific). Supernatants were tested pure and/or diluted to give values within a quantitative linear standard curve generated with recombinant cytokines. Curves of dose-dependent cytokine responses and graphs were plotted using the Graphpad Prism Software. EC50 values were calculated using the function log (agonist) response with variable slope, and statistical analyses were carried out using the same software. To calculate concentration-dependent cytokine ratios, IL-4/IFNγ and IL-13/IFNγ ratios were calculated using cytokine values from which background levels (i.e. levels in cultures receiving DMSO vehicle alone) were subtracted. Ratios were calculated by dividing IL-4 or IL-13 concentrations in pg/mL by IFNγ concentration in ng/mL.

[1] = tested on: iNKT cells in PBMCs from healthy donors; experiment: Ex vivo staining of PBMCs from healthy donors with analog-loaded hCD1d tetramers; format: cell-based, human
Text: Our panel of clones might be limited to iNKT cells able to expand upon PHA stimulation and might be representative of a fraction only of the iNKT cell repertoire. […] The frequencies of iNKT cells measured using tetramers loaded with N-aromatic branched analogs were lower in some or all PBMCs tested. A lower detection might be explained by weaker efficiency of staining, since lower MFI values were also seen with iNKT cell clones stained with tetramers loaded with these glycolipids.
Figure 4 Ex vivo analysis of PBMC with CD1d tetramers loaded with αGalCer analogs. (A) Flow cytometric analyses were performed after labeling of PBMCs from healthy donors with hCD1d tetramers loaded with each of the indicated glycolipids. Representative dot plots generated with PBMCs from one normal donor, with the analog tested indicated at the top of each plot and the percentages of tetramer^+ CD3^+ cells indicated in the top right quadrants. The dot plots show events gating as live lymphocytes (PI negative and FSC/SSC gated lymphocytes). (B) Comparison of tetramer^+ cell frequencies in PBMC from three different donors. The frequencies of cells specifically stained with hCD1d tetramers loaded with the indicated glycolipids (or vehicle (Veh) only (i.e., DMSO)) are shown as the percentage of total iNKT cells (i.e., cells staining with mAb 6B11^+, specific for the invariant TCRα chain of iNKT cells). Similar results were obtained for three additional PBMC donors (not shown). TEXT PRINTED IN THE PICTURE: (A) Vehicle: 0.03 | (A) KRN7000: 0.56 | (A) C20:2: 0.52 | (A) C20:4: 0.58 | (A) Tol: 0.16 | (A) DFB: 0.56 | (A) BB: 0.29 | (A) AD: 0.49 DOUBTS OF THE COPYIST ABOUT THIS PICTURE: Panel A: the numbers in the upper right quadrants are printed without a measure or unit; only the axes (hCD1d tetramer / CD3) are printed

Human iNKT TCRs = Human iNKT TCRs (Homo sapiens, UniProt A0A075B6N4+A0A0B4J240+P15813); experiment: Equilibrium binding of analog-loaded hCD1d tetramers to iNKT cell clones
Text: For flow cytometric analysis, 6B11 (Vα24Jα18 specific) and mAbs specific for human CD3, CD4, CD8α, CD19, CD40L (CD154), CD56, CD69, GM-CSF & IFNγ were obtained from BD Biosciences. IL-4 and IL-13 specific mAbs were from Biolegend. Vα24 (C15) and Vβ11 (C21) specific mAb were from Immunotech. For antibody blocking in culture assays, non-specific isotype matched control, IL-2, IFNγ, IL-12p70 and CD40L specific mAbs without preservatives were obtained from BD Biosciences and IL-18 specific mAb from Medical & Biological Laboratories (MBL, Nagoya, Japan). Phycoerythrin and allophycocyanin labeled human CD1d tetramers were prepared in our laboratory as previously described. Curves of tetramer equilibrium binding constants and graphs were plotted using the Graphpad Prism Software (Version 5). KD values were calculated using the function non-linear fit (hyperbola, one binding site).
To characterize in more detail the iNKT cell TCR recognition of αGalCer analogs presented by human CD1d, we generated soluble and fluorescent tetrameric hCD1d molecules loaded with each of the glycolipid analogs. […] This was similar to the previously reported failure of mouse CD1d tetramer loaded with lysosulfatide to bind detectably to murine non-invariant and sulfatide specific NKT cells, despite a clear reactivity to this lipid upon presentation by APCs; [40]. […] To quantitate their binding avidities to iNKT cell TCRs, we used titration of analog-loaded hCD1d tetramers to determine equilibrium dissociation constants (KD), which are inversely proportional to avidity (Figure 3A and 3B).
Figure 3 Characterization of human iNKT cell TCR interactions with analog-loaded tetramers. (A) iNKT cell clones were stained with titrated amounts of hCD1d tetramers loaded with the indicated glycolipids (abbreviations as in legend to Figure 1), and the measured MFI values are plotted for selected glycolipids. (B) The equilibrium dissociation constants (KD, inversely proportional to TCR avidity) were determined as the concentrations of tetramers required to yield 50% of maximal binding. Data shown were obtained using the CD4^+ iNKT cell clone HDD3, and similar results (not shown) were obtained with a second CD4^+ clone (HDD11) and a CD4^−8^− double negative iNKT cell clone (HDE3). (C) Analysis of iNKT cell clones labeled with 20 nM of hCD1d tetramers which were loaded with variable excesses of analog to constant hCD1d (25 to 1000 fold molar excess of glycolipid to hCD1d protein). The measured MFI values were normalized as the percent of the maximum staining intensity obtained with each analog loaded tetramer. Data presented were generated with HDD3 (CD4+) iNKT cell clone, and similar results (not shown) were obtained with HDE3 (DN) clone.

[2] = CD1d-transfected HeLa APC, 24 h co-culture, ELISA

Row | avidity of human iNKT TCRs for analog in complex with hCD1d (Human iNKT TCRs) | EC50 (human iNKT cell clones; Homo sapiens, iNKT, HDD3 clone, IL-4 levels did not reach a plateau) [µM] | SMILES | dose inducing the lowest activation state (IL-13 and GM-CSF secretion) (human iNKT cell clones) [nM] | iNKT cell clone cytokine response / agonist activity (human iNKT cell clones) | iNKT cell frequencies with loaded tetramers versus staining with Vα24Jα18 specific Ab 6B11 [1] | concentration at which IL-13 production was induced (human iNKT cell clones; [2]) [nM] | concentration reaching maximal IL-13 production (human iNKT cell clones; [2]) | higher concentration required for IFNγ to be induced and reach plateau, relative to IL-13 (human iNKT cell clones; [2]) | concentration saturating IL-4 production (human iNKT cell clones; CD1d-transfected HeLa APC, data not shown)
1 | strong avidity |  | CCCCC/C=C\C/C=C\CCCCCCCCCC(=O)N[C@@H](CO[C@H]1O[C@H](CO)[C@H](O)[C@H](O)[C@H]1O)[C@H](O)[C@H](O)CCCCCCCCCCCCCC [C20:2] | < 1 | strong agonist activity | Comparable iNKT cell frequencies |  |  |  | 
2 | strong avidity | > 10 | CCCCC/C=C\C/C=C\C/C=C\C/C=C\CCCC(=O)N[C@@H](CO[C@H]1O[C@H](CO)[C@H](O)[C@H](O)[C@H]1O)[C@H](O)[C@H](O)CCCCCCCCCCCCCC [C20:4] |  | substantially lower iNKT cell response | Comparable iNKT cell frequencies |  |  |  | 
3 | strong avidity |  | CCCCCCCCCCCCCCCCCCCCCCCCCC(=O)N[C@@H](CO[C@H]1O[C@H](CO)[C@H](O)[C@H](O)[C@H]1O)[C@H](O)[C@H](O)CCCCCCCCCCCCCC [KRN7000, reference compound] | < 1 | strong agonist activity | Comparable iNKT cell frequencies | ≤ 0.1 | approximately 1 nM | approximately 1 log | very high KRN7000 concentrations in the µM range
